Patent US20230085307A1, “PYRIDAZINONE COMPOUND AND HERBICIDE” (NISSAN CHEMICAL CORPORATION, priority 2019, published 2023)

How the values were obtained:
[1] = tested on: Japanese bulrush; assay: Test Example 1: herbicidal activity, application before weed generation under submerged conditions (Table 16, symbol B); type: in vivo, Japanese bulrush (Schoenoplectus juncoides); settings: amount of applied herbicide 320 g/ha
Method in brief: (§1)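 Emulsion formulation, water-diluted to set dose, was put onto the flooded surface (4 cm depth, alluvial soil) the same day weeds were sown and 2.5-leaf rice transplanted. After 3 weeks at 25-30 °C under glass, each species was rated 0 (≤5% kill) to 5 (≥90% kill).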

[2] = tested on: velvetleaf; assay: Test Example 4: herbicidal effect by soil treatment (Table 19, symbol M); type: in vivo, velvetleaf (Abutilon theophrasti); settings: amount of applied herbicide 320 g/ha
Method in brief: (§2)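 Soil-surface application: an emulsion agent diluted with water to the predetermined dose is sprayed uniformly over seeds lying under roughly 1.5 cm of sterilized diluvial soil. Boxes stay in a greenhouse at 25° C. to 30° C. Three weeks later, each species is graded on previously defined criteria.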

[3] = tested on: green foxtail; assay: Test Example 4: herbicidal effect by soil treatment (Table 19, symbol G); type: in vivo, green foxtail (Setaria viridis); settings: amount of applied herbicide 320 g/ha
Method in brief: as §2

[4] = tested on: persian speedwell; assay: Test Example 4: herbicidal effect by soil treatment (Table 19, symbol R); type: in vivo, Persian speedwell (Veronica persica); settings: amount of applied herbicide 320 g/ha
Method in brief: as §2

[5] = tested on: green foxtail; assay: Test Example 5: herbicidal effect by foliage application, plastic box (Table 20, symbol G); type: in vivo, green foxtail (Setaria viridis); settings: foliage application, 320 g/ha, three weeks after application
Method in brief: (§3)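 Sow seeds spot-wise in sterilized diluvial soil; cover with ~1.5 cm soil. Grow 14 days in greenhouse, 25° C. to 30° C. Spray foliage with emulsion diluted to predetermined amount. Rate effect after 3 weeks.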

[6] = tested on: velvetleaf; assay: Test Example 5: herbicidal effect by foliage application, plastic box (Table 20, symbol M); type: in vivo, velvetleaf (Abutilon theophrasti); settings: foliage application, 320 g/ha, three weeks after application
Method in brief: as §3

[7] = tested on: southern crabgrass; assay: Test Example 4: herbicidal effect by soil treatment (Table 19, symbol F); type: in vivo, southern crabgrass (Digitaria ciliaris); settings: amount of applied herbicide 320 g/ha
Method in brief: as §2

[8] = tested on: blackgrass; assay: Test Example 5: herbicidal effect by foliage application, plastic box (Table 20, symbol J); type: in vivo, blackgrass (Alopecurus myosuroides); settings: foliage application, 320 g/ha, three weeks after application
Method in brief: as §3

[9] = tested on: late watergrass; assay: Test Example 1: herbicidal activity, application before weed generation under submerged conditions (Table 16, symbol A); type: in vivo, late watergrass (Echinochloa oryzicola); settings: amount of applied herbicide 320 g/ha
Method in brief: as §1

[10] = tested on: wild oat; assay: Test Example 5: herbicidal effect by foliage application, plastic box (Table 20, symbol I); type: in vivo, wild oat (Avena fatua); settings: foliage application, 320 g/ha, three weeks after application
Method in brief: as §3

[11] = tested on: windgrass; assay: Test Example 5: herbicidal effect by foliage application, plastic box (Table 20, symbol L); type: in vivo, windgrass (Apera spica-venti); settings: foliage application, 320 g/ha, three weeks after application
Method in brief: as §3

[12] = tested on: southern crabgrass; assay: Test Example 5: herbicidal effect by foliage application, plastic box (Table 20, symbol F); type: in vivo, southern crabgrass (Digitaria ciliaris); settings: foliage application, 320 g/ha, three weeks after application
Method in brief: as §3

[13] = tested on: Italian ryegrass; assay: Test Example 4: herbicidal effect by soil treatment (Table 19, symbol K); type: in vivo, Italian ryegrass (Lolium multiflorum); settings: amount of applied herbicide 320 g/ha
Method in brief: as §2

[14] = tested on: barnyard grass; assay: Test Example 3: herbicidal effect by foliage application, Wagner pot (Table 18, symbol H); type: in vivo, barnyard grass (Echinochloa crus-galli); settings: for Herbicidal effect on H (barnyard grass), foliage application: amount of applied herbicide 320 g/ha
Method in brief: (§4)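 Plants were sown in alluvial soil held under 0.1–0.5 cm standing water and grown 14 days in a greenhouse at 25–30 °C. An emulsifiable formulation, water-diluted to the set dose, was then sprayed onto the foliage, and effects were scored three weeks later using previously defined criteria.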

[15] = tested on: windgrass; assay: Test Example 4: herbicidal effect by soil treatment (Table 19, symbol L); type: in vivo, windgrass (Apera spica-venti); settings: amount of applied herbicide 320 g/ha
Method in brief: as §2

[16] = tested on: barnyard grass; assay: Test Example 5: herbicidal effect by foliage application, plastic box (Table 20, symbol H); type: in vivo, barnyard grass (Echinochloa crus-galli); settings: foliage application, 320 g/ha, three weeks after application
Method in brief: as §3

[17] = tested on: rice flat sedge; assay: Test Example 3: herbicidal effect by foliage application, Wagner pot (Table 18, symbol E); type: in vivo, rice flat sedge (Cyperus iria); settings: for Herbicidal effect on E (rice flat sedge), foliage application: amount of applied herbicide 320 g/ha
Method in brief: as §4

Compound: CCOc1ccccc1-c1sc2cc(C)c(C)cc2c1-c1c(O)c(C)nn(C)c1=O [5-094]
- Herbicidal effect, B: Japanese bulrush [1]: 4 (Herbicidal rate of 70% or more and less than 90%)
- M: velvetleaf, herbicidal effect grade [2]: 1 (Herbicidal rate of 5% or more and less than 20%)
- G: green foxtail, herbicidal effect grade [3]: 4 (Herbicidal rate of 70% or more and less than 90%)
- R: persian speedwell, herbicidal effect grade [4]: 3 (Herbicidal rate of 40% or more and less than 70%)
- herbicidal effect on green foxtail (G) [5]: 5 (Herbicidal rate of 90% or more (almost completely withered))
- herbicidal effect on velvetleaf (M) [6]: 4 (Herbicidal rate of 70% or more and less than 90%)
- F: southern crabgrass, herbicidal effect grade [7]: 4 (Herbicidal rate of 70% or more and less than 90%)
- herbicidal effect on blackgrass (J) [8]: 4 (Herbicidal rate of 70% or more and less than 90%)
- Herbicidal effect, A: late watergrass [9]: 4 (Herbicidal rate of 70% or more and less than 90%)
- herbicidal effect on wild oat (I) [10]: 1 (Herbicidal rate of 5% or more and less than 20%)
- herbicidal effect on windgrass (L) [11]: 4 (Herbicidal rate of 70% or more and less than 90%)
- herbicidal effect on southern crabgrass (F) [12]: 5 (Herbicidal rate of 90% or more (almost completely withered))
- K: Italian ryegrass, herbicidal effect grade [13]: 3 (Herbicidal rate of 40% or more and less than 70%)
- herbicidal effect on barnyard grass (H) ([14]; 320 g/ha): 5 (Herbicidal rate of 90% or more (almost completely withered))
- L: windgrass, herbicidal effect grade [15]: 3 (Herbicidal rate of 40% or more and less than 70%)
- herbicidal effect on barnyard grass (H) [16]: 5 (Herbicidal rate of 90% or more (almost completely withered))
- herbicidal effect on rice flat sedge (E) ([17]; 320 g/ha): 4 (Herbicidal rate of 70% or more and less than 90%)

Compound: COc1ccccc1-c1sc2c(Br)c(OC)ccc2c1-c1c(O)c(C)nn(C)c1=O [7-002]
- Herbicidal effect, B: Japanese bulrush [1]: 3 (Herbicidal rate of 40% or more and less than 70%)
- M: velvetleaf, herbicidal effect grade [2]: 1 (Herbicidal rate of 5% or more and less than 20%)
- G: green foxtail, herbicidal effect grade [3]: 0 (Herbicidal rate of 5% or less (almost no effect))
- R: persian speedwell, herbicidal effect grade [4]: 3 (Herbicidal rate of 40% or more and less than 70%)
- herbicidal effect on green foxtail (G) [5]: 5 (Herbicidal rate of 90% or more (almost completely withered))
- herbicidal effect on velvetleaf (M) [6]: 4 (Herbicidal rate of 70% or more and less than 90%)
- F: southern crabgrass, herbicidal effect grade [7]: 1 (Herbicidal rate of 5% or more and less than 20%)
- herbicidal effect on blackgrass (J) [8]: 0 (Herbicidal rate of 5% or less (almost no effect))
- Herbicidal effect, A: late watergrass [9]: 3 (Herbicidal rate of 40% or more and less than 70%)
- herbicidal effect on wild oat (I) [10]: 0 (Herbicidal rate of 5% or less (almost no effect))
- herbicidal effect on windgrass (L) [11]: 5 (Herbicidal rate of 90% or more (almost completely withered))
- herbicidal effect on southern crabgrass (F) [12]: 0 (Herbicidal rate of 5% or less (almost no effect))
- K: Italian ryegrass, herbicidal effect grade [13]: 0 (Herbicidal rate of 5% or less (almost no effect))
- Herbicidal effect on H (barnyard grass), foliage application [14]: 5 (Herbicidal rate of 90% or more (almost completely withered))
- L: windgrass, herbicidal effect grade [15]: 0 (Herbicidal rate of 5% or less (almost no effect))
- herbicidal effect on barnyard grass (H) [16]: 5 (Herbicidal rate of 90% or more (almost completely withered))
- Herbicidal effect on E (rice flat sedge), foliage application [17]: 4 (Herbicidal rate of 70% or more and less than 90%)

Compound: Cc1nn(C)c(=O)c(-c2c(-c3ccc4c(c3)OCCO4)oc3ccccc23)c1O [8-002]
- Herbicidal effect, B: Japanese bulrush [1]: 5 (Herbicidal rate of 90% or more (almost completely withered))
- M: velvetleaf, herbicidal effect grade [2]: 0 (Herbicidal rate of 5% or less (almost no effect))
- G: green foxtail, herbicidal effect grade [3]: 3 (Herbicidal rate of 40% or more and less than 70%)
- R: persian speedwell, herbicidal effect grade [4]: 5 (Herbicidal rate of 90% or more (almost completely withered))
- herbicidal effect on green foxtail (G) [5]: 3 (Herbicidal rate of 40% or more and less than 70%)
- herbicidal effect on velvetleaf (M) [6]: 5 (Herbicidal rate of 90% or more (almost completely withered))
- F: southern crabgrass, herbicidal effect grade [7]: 3 (Herbicidal rate of 40% or more and less than 70%)
- herbicidal effect on blackgrass (J) [8]: 0 (Herbicidal rate of 5% or less (almost no effect))
- Herbicidal effect, A: late watergrass [9]: 4 (Herbicidal rate of 70% or more and less than 90%)
- herbicidal effect on wild oat (I) [10]: 2 (Herbicidal rate of 20% or more and less than 40%)
- herbicidal effect on windgrass (L) [11]: 1 (Herbicidal rate of 5% or more and less than 20%)
- herbicidal effect on southern crabgrass (F) [12]: 1 (Herbicidal rate of 5% or more and less than 20%)
- K: Italian ryegrass, herbicidal effect grade [13]: 0 (Herbicidal rate of 5% or less (almost no effect))
- Herbicidal effect on H (barnyard grass), foliage application [14]: 4 (Herbicidal rate of 70% or more and less than 90%)
- L: windgrass, herbicidal effect grade [15]: 0 (Herbicidal rate of 5% or less (almost no effect))
- herbicidal effect on barnyard grass (H) [16]: 4 (Herbicidal rate of 70% or more and less than 90%)
- Herbicidal effect on E (rice flat sedge), foliage application [17]: 4 (Herbicidal rate of 70% or more and less than 90%)

Compound: CCCOc1ccc(-c2oc3ccccc3c2-c2c(O)c(C)nn(C)c2=O)cc1 [8-003]
- Herbicidal effect, B: Japanese bulrush [1]: 5 (Herbicidal rate of 90% or more (almost completely withered))
- M: velvetleaf, herbicidal effect grade [2]: 1 (Herbicidal rate of 5% or more and less than 20%)
- G: green foxtail, herbicidal effect grade [3]: 2 (Herbicidal rate of 20% or more and less than 40%)
- R: persian speedwell, herbicidal effect grade [4]: 4 (Herbicidal rate of 70% or more and less than 90%)
- herbicidal effect on green foxtail (G) [5]: 5 (Herbicidal rate of 90% or more (almost completely withered))
- herbicidal effect on velvetleaf (M) [6]: 5 (Herbicidal rate of 90% or more (almost completely withered))
- F: southern crabgrass, herbicidal effect grade [7]: 3 (Herbicidal rate of 40% or more and less than 70%)
- herbicidal effect on blackgrass (J) [8]: 4 (Herbicidal rate of 70% or more and less than 90%)
- Herbicidal effect, A: late watergrass [9]: 5 (Herbicidal rate of 90% or more (almost completely withered))
- herbicidal effect on wild oat (I) [10]: 1 (Herbicidal rate of 5% or more and less than 20%)
- herbicidal effect on windgrass (L) [11]: 0 (Herbicidal rate of 5% or less (almost no effect))
- herbicidal effect on southern crabgrass (F) [12]: 2 (Herbicidal rate of 20% or more and less than 40%)
- K: Italian ryegrass, herbicidal effect grade [13]: 4 (Herbicidal rate of 70% or more and less than 90%)
- Herbicidal effect on H (barnyard grass), foliage application [14]: 5 (Herbicidal rate of 90% or more (almost completely withered))
- L: windgrass, herbicidal effect grade [15]: 0 (Herbicidal rate of 5% or less (almost no effect))
- herbicidal effect on barnyard grass (H) [16]: 5 (Herbicidal rate of 90% or more (almost completely withered))
- Herbicidal effect on E (rice flat sedge), foliage application [17]: 4 (Herbicidal rate of 70% or more and less than 90%)
